# In publication PMC6592956, “Characterization of Porcine Hepatic and Intestinal Drug Metabolizing CYP450: Comparison with Human Orthologues from A Quantitative, Activity and Selectivity Perspective” (Scientific Reports, 2019):
# Marks after values point to notes of the source that are not given here.
# Experiments:
# CYP1A [1] = conditions: n = 8
# Description: (§2) The incubation times were derived from linearity experiments. […] Protein concentrations and time were chosen at the lowest possible value to allow reliable quantification, within the linear range of the biotransformation reaction.
# (§3) The activity data were fitted against the standard Michaelis-Menten equation (Eq. (1a), first term). For each profile, Eadie-Hofstee plots were derived to investigate involvement of more than one enzyme or deviation from normal Michaelis-Menten behaviour. If the Eadie-Hofstee plot was hyperbolic, the data was fitted against the Hill equation[60]. Km, Vmax and/or Hill coefficients were derived for each substrate and pig, in order to obtain the inter-individual variation.
# (§4) Stepwise linear regression, correlation analyses, and independent sample t-tests were performed with the SPSS® 24 software (IBM, New York, USA). Sex differences in hepatic protein abundances, Km, and Vmax values, were analyzed by an independent sample t-test. Normality was checked using the Shapiro Wilk test. If the Shapiro Wilk test statistic was significant, log transformation was used to calculate the t-statistic. Equality of variances was checked using the Levene’s test for equality of variances. The appropriate test statistic was used depending on the equality of variances.
# CYP1A [2] = conditions: n = 8; remark: listed apart in the source
# Description: as §2, §3, §4
# [3] = system: porcine intestinal CYP450 enzymes; conditions: duodenum, jejunum, ileum
# Description: (§5) Intestinal microsomes were incubated as described above for hepatic microsomes. […] Each activity measurement (hepatic and intestinal) was performed in triplicate and data are present [...
# porcine CYP450 = conditions: outcome of general decision tree, Figure 4
# [4] = system: hepatic CYP450 abundancies; assay: Pearson correlation between hepatic CYP450 abundancies and probe activities
# [5] = system: porcine intestinal CYP450 enzymes; assay: in vitro; conditions: pig
# Description: as §5
# CYP2C9/19 = conditions: cited from earlier work
# Description: (§1) The inhibitors used were α-NFV, 8-MPS, KET, SFZ, QND, and DDC for CYP1A/2 A, CYP2A, CYP3A, CYP2C, CYP2D, and CYP2E1, respectively. […] All incubations were performed in triplicate.
# CYP2E = assay: Incubation with inhibitors: CZ-hydroxylation in porcine hepatic microsomes; type: in vitro ADME, conventional pig
# Description: as §1
# CYP2A = assay: Incubation with inhibitors: CM-hydroxylation in porcine hepatic microsomes; type: in vitro ADME, conventional pig
# Description: as §1
# CYP3A = assay: Incubation with inhibitors: MDZ-hydroxylation in porcine hepatic microsomes; type: in vitro ADME, conventional pig; conditions: MDZ 20 µM; inhibitors SFZ 0.5, α-NFV 0.1 (1 µM), QND 0.1, KET 0.3, DDC 20, 8-MPS 1 µM; mean (SD) of 3
# Description: as §1
# CYP1A [6] = assay: Incubation with inhibitors: PH-O-deethylation in porcine hepatic microsomes; type: in vitro ADME, conventional pig
# Description: as §1
# CYP2D = molecular target: T1, CYP2D (Sus scrofa, UniProt O46658); assay: Incubation with inhibitors: DXM-O-demethylation in porcine hepatic microsomes; type: in vitro ADME, conventional pig; conditions: DXM 10 µM; inhibitors SFZ 0.5, α-NFV 0.1 (1 µM), QND 0.1, KET 0.3, DDC 20, 8-MPS 1 µM; mean (SD) of 3
# T1 construct: from tissue; host or cells: pig liver microsomes
# T1 sequence (O46658 1-500): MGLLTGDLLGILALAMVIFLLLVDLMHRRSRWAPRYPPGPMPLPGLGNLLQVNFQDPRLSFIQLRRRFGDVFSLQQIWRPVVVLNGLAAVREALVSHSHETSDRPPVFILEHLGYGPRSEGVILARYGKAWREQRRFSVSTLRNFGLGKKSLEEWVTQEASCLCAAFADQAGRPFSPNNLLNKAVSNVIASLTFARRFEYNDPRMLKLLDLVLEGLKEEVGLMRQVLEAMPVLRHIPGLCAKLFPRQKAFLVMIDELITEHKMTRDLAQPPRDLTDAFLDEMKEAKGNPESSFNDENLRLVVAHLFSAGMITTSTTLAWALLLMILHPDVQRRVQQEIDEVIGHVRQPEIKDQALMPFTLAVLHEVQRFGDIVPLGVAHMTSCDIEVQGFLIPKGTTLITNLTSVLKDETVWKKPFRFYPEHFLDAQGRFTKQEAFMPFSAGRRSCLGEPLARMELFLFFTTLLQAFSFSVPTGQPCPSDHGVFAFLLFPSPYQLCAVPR
# Description: as §1
# CYP2C = conditions: TB 200 µM; inhibitors SFZ 0.5, α-NFV 0.1 (1 µM), QND 0.1, KET 0.3, DDC 20, 8-MPS 1 µM; mean (SD) of 3
# Description: To assess the selectivity of the probes, incubation with human specific CYP450 inhibitors was performed. […] All incubations were performed in triplicate. Fourth, typical inhibitors for each of the reactions were included at previously reported Ki values[43],[64].
molecule,measurement,setting,value
"CCOc1ccc(NC(C)=O)cc1 [PH, phenacetin]","log_Km, male",CYP1A [1],"1,2876"
same,"log_Km, female",CYP1A [2],"1,1345"
"O=c1ccc2ccccc2o1 [CM, coumarin]",CM-hydroxylase activity in the intestine,[3],No CM-hydroxylase activity could be detected
same,Enzyme involvement: High affinity,porcine CYP450,CYP2A19
same,"Pearson's correlation coefficient, CM activity vs hepatic CYP2A19 abundance",[4]; level 3 (CM 2.00 µM),0.62
same,"Pearson's correlation coefficient, CM activity vs hepatic CYP2A19 abundance",[4]; level 4 (CM 5.00 µM),0.66*
same,"Pearson's correlation coefficient, CM activity vs hepatic CYP2A19 abundance",[4]; level 5 (CM 20.0 µM),0.67*
same,"Pearson's correlation coefficient, CM activity vs hepatic CYP2A19 abundance",[4]; level 6 (CM 100 µM),0.66*
"COc1ccc2c(c1)[C@]13CCCC[C@@H]1[C@H](C2)N(C)CC3 [DXM, Dextromethorphan]",Enzyme involvement: High affinity,porcine CYP450,CYP2D25
same,Enzyme involvement: Low affinity,porcine CYP450,CYP3A
same,Km at 10 min,"[5]; Duodenum Km, duodenal microsomes, pool of 16 pigs, n=3, mean (SD)",31.5 µM
same,"Pearson's correlation coefficient, DXM activity vs hepatic CYP2C33 abundance",[4]; level 1 (DXM 0.10 µM),0.59
same,"Pearson's correlation coefficient, DXM activity vs hepatic CYP2E1 abundance",[4]; level 1 (DXM 0.10 µM),0.55
same,"Pearson's correlation coefficient, DXM activity vs hepatic CYP3A46 abundance",[4]; level 1 (DXM 0.10 µM),0.59
same,"Pearson's correlation coefficient, DXM activity vs hepatic CYP2C33 abundance",[4]; level 2 (DXM 0.50 µM),0.65*
same,"Pearson's correlation coefficient, DXM activity vs hepatic CYP2D25 abundance",[4]; level 2 (DXM 0.50 µM),0.55
same,"Pearson's correlation coefficient, DXM activity vs hepatic CYP2E1 abundance",[4]; level 2 (DXM 0.50 µM),0.57
same,"Pearson's correlation coefficient, DXM activity vs hepatic CYP3A29 abundance",[4]; level 2 (DXM 0.50 µM),0.52
same,"Pearson's correlation coefficient, DXM activity vs hepatic CYP3A46 abundance",[4]; level 2 (DXM 0.50 µM),0.65*
same,"Pearson's correlation coefficient, DXM activity vs hepatic CYP1A2 abundance",[4]; level 3 (DXM 1.00 µM),0.54
same,"Pearson's correlation coefficient, DXM activity vs hepatic CYP2C33 abundance",[4]; level 3 (DXM 1.00 µM),0.65*
same,"Pearson's correlation coefficient, DXM activity vs hepatic CYP2D25 abundance",[4]; level 3 (DXM 1.00 µM),0.57
same,"Pearson's correlation coefficient, DXM activity vs hepatic CYP2E1 abundance",[4]; level 3 (DXM 1.00 µM),0.60
same,"Pearson's correlation coefficient, DXM activity vs hepatic CYP3A29 abundance",[4]; level 3 (DXM 1.00 µM),0.56
same,"Pearson's correlation coefficient, DXM activity vs hepatic CYP3A46 abundance",[4]; level 3 (DXM 1.00 µM),0.73*
same,"Pearson's correlation coefficient, DXM activity vs hepatic CYP1A2 abundance",[4]; level 4 (DXM 5.00 µM),0.56
same,"Pearson's correlation coefficient, DXM activity vs hepatic CYP2C33 abundance",[4]; level 4 (DXM 5.00 µM),0.70*
same,"Pearson's correlation coefficient, DXM activity vs hepatic CYP2D25 abundance",[4]; level 4 (DXM 5.00 µM),0.63*
same,"Pearson's correlation coefficient, DXM activity vs hepatic CYP2E1 abundance",[4]; level 4 (DXM 5.00 µM),0.56
same,"Pearson's correlation coefficient, DXM activity vs hepatic CYP3A29 abundance",[4]; level 4 (DXM 5.00 µM),0.58
same,"Pearson's correlation coefficient, DXM activity vs hepatic CYP3A46 abundance",[4]; level 4 (DXM 5.00 µM),0.78*
same,"Pearson's correlation coefficient, DXM activity vs hepatic CYP1A2 abundance",[4]; level 5 (DXM 20.0 µM),0.55
same,"Pearson's correlation coefficient, DXM activity vs hepatic CYP2C33 abundance",[4]; level 5 (DXM 20.0 µM),0.70*
same,"Pearson's correlation coefficient, DXM activity vs hepatic CYP2D25 abundance",[4]; level 5 (DXM 20.0 µM),0.63*
same,"Pearson's correlation coefficient, DXM activity vs hepatic CYP2E1 abundance",[4]; level 5 (DXM 20.0 µM),0.52
same,"Pearson's correlation coefficient, DXM activity vs hepatic CYP3A29 abundance",[4]; level 5 (DXM 20.0 µM),0.58
same,"Pearson's correlation coefficient, DXM activity vs hepatic CYP3A46 abundance",[4]; level 5 (DXM 20.0 µM),0.75*
same,"Pearson's correlation coefficient, DXM activity vs hepatic CYP1A2 abundance",[4]; level 6 (DXM 100 µM),0.54
same,"Pearson's correlation coefficient, DXM activity vs hepatic CYP2C33 abundance",[4]; level 6 (DXM 100 µM),0.67*
same,"Pearson's correlation coefficient, DXM activity vs hepatic CYP2D25 abundance",[4]; level 6 (DXM 100 µM),0.66*
same,"Pearson's correlation coefficient, DXM activity vs hepatic CYP2E1 abundance",[4]; level 6 (DXM 100 µM),0.54
same,"Pearson's correlation coefficient, DXM activity vs hepatic CYP3A29 abundance",[4]; level 6 (DXM 100 µM),0.59
same,"Pearson's correlation coefficient, DXM activity vs hepatic CYP3A46 abundance",[4]; level 6 (DXM 100 µM),0.74*
same,Correlation (r) of CYP2D25 with DXM-O-demethylation,[4]; range over concentration levels,0.55–0.66
"Nc1ccc(S(=O)(=O)Nc2ccnn2-c2ccccc2)cc1 [SFZ, sulphaphenazole]",Ki,CYP2C9/19,120 to 700 nM
"CCOc1ccc(NC(C)=O)cc1 [PH, Phenacetin]",Km at 10 min,[5]; duodenal microsomes,144 µM
same,Km at 10 min,[5]; ileal microsomes,189 µM
same,Km at 10 min,[5]; jejunal microsomes,182 µM
same,"Pearson's correlation coefficient, PH activity vs hepatic CYP3A46 abundance",[4]; level 6 (PH 200 µM),0.51
O=c1cc(-c2ccccc2)oc2c1ccc1ccccc12 [α-naphthoflavone],"Ratio of residual activity (substrate + inhibitor versus substrate only), CYP2E CZ","CYP2E; CZ 50 µM, inhibitors SFZ 0.5, α-NFV 0.1 (1 µM), QND 0.1, KET 0.3, DDC 20, 8-MPS 1 µM, mean (SD) of 3",1.06 (0.057)
same,Inhibition of CZ-hydroxylation by inhibitor,CYP2E; porcine hepatic microsomes,did not inhibit
same,"Ratio of residual activity (substrate + inhibitor versus substrate only), CYP2A CM","CYP2A; CM 1 µM, inhibitors SFZ 0.5, α-NFV 0.1 (1 µM), QND 0.1, KET 0.3, DDC 20, 8-MPS 1 µM, mean (SD) of 3",0.94 (0.131)
same,inhibition at 1 µM,"CYP2A; pig, porcine hepatic microsomes, probe coumarin 1 µM (CM-hydroxylation), inhibitor 1 µM, read-out: Maximal inhibition of other reactions (CM)",4%
same,Inhibition of CM-hydroxylation by inhibitor,CYP2A; porcine hepatic microsomes,5%
same,"Ratio of residual activity (substrate + inhibitor versus substrate only), CYP3A MDZ",CYP3A,1.08 (0.048)
same,"Ratio of residual activity (substrate + inhibitor versus substrate only), CYP1A PH","CYP1A [6]; PH 20 µM, inhibitors SFZ 0.5, α-NFV 0.1 (1 µM), QND 0.1, KET 0.3, DDC 20, 8-MPS 1 µM, mean (SD) of 3",0.76 (0.011)
same,"PH-O-deethylation (CYP1A2) activity, % of the control value",CYP1A [6]; inhibitor increased to 1 µM,76%
same,inhibition at 0.1 µM,"CYP1A [6]; pig, probe phenacetin 20 µM (PH-O-deethylation), porcine hepatic microsomes, read-out: Inhibition of PH-O-deethylation by inhibitor",24%
same,"Ratio of residual activity (substrate + inhibitor versus substrate only), CYP2D DXM",CYP2D,1.02 (0.143)
same,"Ratio of residual activity (substrate + inhibitor versus substrate only), CYP2C TB",CYP2C,1.13 (0.099)
"CYP3A29 (protein, UniProt P79401 1-503, looked up) Cytochrome P450 3A29: MDLIPGFSTETWVLLATSLVLLYLYGTYSHGLFKKLGIPGPRPLPYFGNILGYRKGVDHFDKKCFQQYGKMWGVYDGRQPLLAVTDPNMIKSVLVKECYSVFTNRRSFGPLGAMRNALSLAEDEEWKRIRTLLSPTFTSGKLKEMFPIISHYGDLLVSNLRKEAEKGKPVTMKDIFGAYSMDVITSTAFGVNIDSLNNPQDPFVENSKKLLKFSFFDPFLLSLIFFPFLTPIFEVLNITLFPKSSVNFFTKSVKRMKESRLTDQQKRRVDLLQLMINSQNSKEMDPHKSLSNEELVAQGIIFIFAGYETTSSALSLLAYELATHPDVQQKLQEEIEATFPNKAPPTYDALAQMEYLDMVVNETLRLYPIAARLERACKKDVEIHGVFVPKGTVVVVPVFVLHRDPDLWPEPEEFRPERFSKKHKDTINPYTYLPFGTGPRNCIGMRFALMNMKLALVRVLQNFSFKPCKETQIPLKLTTQGLTQPEKPVVLKILPRDGTVSGA",Amount,hepatic CYP450,4.74 pmol/mg protein
"CYP2D25 (protein, UniProt O46658 2-500, looked up) Vitamin D(3) 25-hydroxylase: GLLTGDLLGILALAMVIFLLLVDLMHRRSRWAPRYPPGPMPLPGLGNLLQVNFQDPRLSFIQLRRRFGDVFSLQQIWRPVVVLNGLAAVREALVSHSHETSDRPPVFILEHLGYGPRSEGVILARYGKAWREQRRFSVSTLRNFGLGKKSLEEWVTQEASCLCAAFADQAGRPFSPNNLLNKAVSNVIASLTFARRFEYNDPRMLKLLDLVLEGLKEEVGLMRQVLEAMPVLRHIPGLCAKLFPRQKAFLVMIDELITEHKMTRDLAQPPRDLTDAFLDEMKEAKGNPESSFNDENLRLVVAHLFSAGMITTSTTLAWALLLMILHPDVQRRVQQEIDEVIGHVRQPEIKDQALMPFTLAVLHEVQRFGDIVPLGVAHMTSCDIEVQGFLIPKGTTLITNLTSVLKDETVWKKPFRFYPEHFLDAQGRFTKQEAFMPFSAGRRSCLGEPLARMELFLFFTTLLQAFSFSVPTGQPCPSDHGVFAFLLFPSPYQLCAVPR","log abundance, Mean Difference (t-test for Equality of Means)",hepatic CYP450,",05407"
same,"log abundance, Sig. (2-tailed)",hepatic CYP450,",497"
